Our source for the Ki values is ChEMBL document CHEMBL1128428, “Inhibition of matrix metalloproteinases by hydroxamates containing heteroatom-based modifications of the P1' group” (J Med Chem, 1995).

Experiment [1] deals with T1, Interstitial collagenase (Homo sapiens, UniProt P03956).
T1 sequence (P03956 whole entry): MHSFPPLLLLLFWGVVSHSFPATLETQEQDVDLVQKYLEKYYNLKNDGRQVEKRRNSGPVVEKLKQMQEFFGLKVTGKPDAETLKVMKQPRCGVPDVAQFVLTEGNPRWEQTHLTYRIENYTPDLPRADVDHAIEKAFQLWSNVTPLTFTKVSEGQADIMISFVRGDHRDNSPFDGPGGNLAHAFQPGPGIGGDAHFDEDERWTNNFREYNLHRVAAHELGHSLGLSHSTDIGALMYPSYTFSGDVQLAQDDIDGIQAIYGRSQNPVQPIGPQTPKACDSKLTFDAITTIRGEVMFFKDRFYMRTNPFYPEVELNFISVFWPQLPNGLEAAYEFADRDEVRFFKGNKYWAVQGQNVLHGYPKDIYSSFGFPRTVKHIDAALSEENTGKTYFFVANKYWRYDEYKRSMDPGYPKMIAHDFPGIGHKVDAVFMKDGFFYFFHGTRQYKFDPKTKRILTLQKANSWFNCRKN

Experiment [2] deals with Neutrophil collagenase (Homo sapiens, UniProt P22894).
Neutrophil collagenase, sequence (P22894 whole entry): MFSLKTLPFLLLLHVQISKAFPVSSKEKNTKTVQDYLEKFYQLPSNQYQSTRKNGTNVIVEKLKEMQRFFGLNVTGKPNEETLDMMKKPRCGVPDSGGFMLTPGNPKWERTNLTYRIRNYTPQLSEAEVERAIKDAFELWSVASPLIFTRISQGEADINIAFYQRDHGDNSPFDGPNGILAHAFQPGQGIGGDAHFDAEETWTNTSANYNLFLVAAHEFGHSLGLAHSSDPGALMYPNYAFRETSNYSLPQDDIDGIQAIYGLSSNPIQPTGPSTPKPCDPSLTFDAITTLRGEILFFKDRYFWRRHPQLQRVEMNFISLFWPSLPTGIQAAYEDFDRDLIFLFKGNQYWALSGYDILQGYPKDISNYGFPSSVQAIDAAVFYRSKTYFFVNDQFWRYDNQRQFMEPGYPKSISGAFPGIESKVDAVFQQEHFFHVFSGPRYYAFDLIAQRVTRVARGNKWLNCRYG

Consider `CC(C)(C)[C@H](NC(=O)[C@H](CCCCOc1ccccc1)CC(=O)NO)C(=O)NCCC(=O)O`, for which, in experiment [1], the Ki (commonly the equilibrium dissociation constant of an inhibitor or competing ligand from its target) was determined as 140 nM.
On the same count and under the same terms, to `CNC(=O)[C@@H](NC(=O)[C@H](CCCCOc1ccc(C(C)(C)C)cc1)CC(=O)NO)C(C)(C)C` belongs 350 nM.
For the compound `CCCC(=O)NCCCC[C@H](CC(=O)NO)C(=O)N[C@@H](Cc1ccccc1)C(=O)NC`, the Ki in experiment [2] stood at 12 nM.
As for `CNC(=O)[C@@H](NC(=O)[C@H](CCCCOc1ccc(Cl)c(Cl)c1)CC(=O)NO)C(C)(C)C`, the affinity in experiment [1], expressed as Ki, was 95 nM.
Still for that read-out and setting: the value for `CNC(=O)[C@@H](NC(=O)[C@H](CCCCOc1ccccc1)CC(=O)NO)C(C)(C)C` was 3 nM.
On the same count and under the same terms, to `CC(C)(C)[C@H](NC(=O)[C@H](CCCCOc1ccc(Cl)cc1)CC(=O)NO)C(=O)NCCCN1CCOCC1` belongs 10 nM.
Consider `CNC(=O)[C@@H](NC(=O)[C@H](CCCCOc1ccc(F)cc1)CC(=O)NO)C(C)(C)C`, for which the Ki in experiment [1] came out at 11 nM. This Ki and that of the compound before are within 1.5-fold of each other.
In experiment [2], `CNC(=O)[C@H](Cc1ccccc1)NC(=O)[C@H](CCCCOc1ccccc1)CC(=O)NO` had a Ki below 2 nM.
Consider `CCCCCc1ccc(OCCCC[C@H](CC(=O)NO)C(=O)N[C@H](C(=O)NC)C(C)(C)C)cc1`, for which the affinity in experiment [1] corresponds to a Ki of 1900 nM.
Compound `CC(C)(C)[C@H](NC(=O)[C@H](CCCCOc1ccc(Cl)cc1)CC(=O)NO)C(=O)NCCc1ccccc1` yielded a Ki in experiment [1] of 580 nM.
As for `CNC(=O)[C@H](Cc1ccccc1)NC(=O)[C@H](CCCC(=O)NCc1ccccc1)CC(=O)NO`, the Ki in experiment [2] was 30 nM; in experiment [1], 9600 nM.
As for `CC(C)(C)[C@H](NC(=O)[C@H](CCCCOc1ccccc1)CC(=O)NO)C(=O)NCCCC(=O)O`, in experiment [1], the Ki turned out to be 62 nM.
The same measure, in the same setting: to `CNC(=O)[C@@H](NC(=O)[C@H](CCCCOc1cccc(Cl)c1)CC(=O)NO)C(C)(C)C` belongs 143 nM; to `CNC(=O)[C@@H](NC(=O)[C@H](CCCCOc1ccc(OC)cc1)CC(=O)NO)C(C)(C)C`, below 1 nM.
As to `CNC(=O)[C@H](Cc1ccccc1)NC(=O)[C@H](CCCCCOc1ccccc1)CC(=O)NO`, in experiment [2], the Ki is below 2 nM.
`CC(C)(C)[C@H](NC(=O)[C@H](CCCCOc1ccc(Cl)cc1)CC(=O)NO)C(=O)NCCc1ccc(S(N)(=O)=O)cc1` returned a Ki in experiment [1] of 61 nM. That is a double-digit nanomolar value.
Regarding `CCCNC(=O)CCC[C@H](CC(=O)NO)C(=O)N[C@@H](Cc1ccccc1)C(=O)NC`, affinity in experiment [2] was put at a Ki of 2 nM. That is a single-digit nanomolar value.
Still for that read-out and setting: the value for `CNC(=O)[C@H](Cc1ccccc1)NC(=O)[C@H](CCCCCOCc1ccccc1)CC(=O)NO` was 2 nM.
As to `CNC(=O)[C@@H](NC(=O)[C@H](CCCCOc1cccc(C)c1)CC(=O)NO)C(C)(C)C`, the inhibition constant Ki in experiment [1] worked out at 16 nM.
Same read-out and setting: the value for `CNC(=O)[C@H](Cc1ccccc1)NC(=O)[C@H](CCCCO)CC(=O)NO` was 64 nM.
As for `CNC(=O)[C@H](Cc1ccccc1)NC(=O)[C@H](CCCC(=O)NCCc1ccccc1)CC(=O)NO`, the inhibition constant Ki in experiment [2] came to 32 nM; in experiment [1], 1300 nM.
For `CNC(=O)[C@H](Cc1ccccc1)NC(=O)[C@H](CCCCCO)CC(=O)NO`, in that order: 4 nM and 31 nM.
Take `CC(C)(C)[C@H](NC(=O)[C@H](CCCCOc1ccc(Cl)cc1)CC(=O)NO)C(=O)NCCc1ccccn1`: the affinity in experiment [1] corresponds to a Ki of 80 nM.
In the case of `CCCc1ccc(OCCCC[C@H](CC(=O)NO)C(=O)N[C@H](C(=O)NC)C(C)(C)C)cc1`, the inhibitory constant (Ki) in experiment [1] is 170 nM.
Take `CC(C)(C)[C@H](NC(=O)[C@H](CCCCOc1ccc(Cl)cc1)CC(=O)NO)C(=O)NCCN1CCCC1`: the affinity in experiment [1], expressed as Ki, was 80 nM.
Same read-out and setting: to `CNC(=O)[C@@H](NC(=O)[C@H](CCCCOc1ccc(C(C)C)cc1)CC(=O)NO)C(C)(C)C` belongs 30 nM; to `CNC(=O)[C@@H](NC(=O)[C@H](CCCCOc1cccc(OC)c1)CC(=O)NO)C(C)(C)C`, 72 nM.
